Measured values taken from patent US20060172990A1, “Antibacterial agents” (priority 2002, published 2006).
Values after ≈ are worked out from the molar mass of the structure shown.

Columns and labels:
Type in all cases: cell-based
S. pneumoniae = test: MIC by agar plate dilution against clinical isolates of S. pneumoniae; details: 3 strains (clinical isolates), Iso-Sensitest agar, 18 to 24 hr, 35° C.
Experimental: (§1) Minimal Inhibitory concentrations (MIC) of inhibitors against clinical isolates of S. pneumoniae, H. influenzae and M. catarrhalis obtained from the Public Health and Clinical Microbiology Laboratory, Addenbrooke's Hospital, Hills Road, Cambridge CB2 2QW, UK, were determined by a standard agar plate dilution method following recommendations in British Society for Antimicrobial Chemotherapy Working Party. 1991 “A guide to sensitivity testing British Society for Antimicrobial Chemomtherapy, London, United Kingdom”. Briefly Iso-Sensitest agar (pH 7.2: Oxoid, United Kingdom) was employed supplemented with 5% horse blood (Oxoid) and 20 μg of NAD (Sigma) per ml to support growth of fastidious bacteria. The inoculum used was approximately 10^4 colony forming units of each isolate contained in a volume of 1 μl. Plate were incubated 18 to 24 hr in air, -or for fastidious bacteria an atmosphere enriched with 4-6% carbon dioxide at 35° C. The MIC was determined as the lowest concentration of an antimicrobial tested that inhibited growth of the inoculum, disregarding a single persisting colony or faint haze caused by the inoculation.
(§2) The compounds of the Examples were are antibacterially active in the above assays, The following table states the MIC ranges of the tested compounds against 3 strains of S. pneumoniae, 2 strains of H. influenzae and 1 strain of M. catarrhalis.

H. influenzae = test: MIC by agar plate dilution against clinical isolates of H. influenzae; details: Haemophilus influenzae, 2 strains (clinical isolates), Iso-Sensitest agar, 18 to 24 hr, 35° C., read-out: MIC range H. influenzae
Experimental: as §1, §2

M. catarrhalis = test: MIC by agar plate dilution against clinical isolate of M. catarrhalis; details: Moraxella catarrhalis, 1 strain (clinical isolate), Iso-Sensitest agar, 18 to 24 hr, 35° C.
Experimental: as §1, §2

Row | SMILES | MIC range S. pneumoniae (S. pneumoniae) | MIC (H. influenzae) | MIC (M. catarrhalis)
1 | CC(C)N(CC(=O)N1CCCC1)NC(=O)[C@H](CC1CCCC1)CN(O)C=O [Example 2] | 4 to 16 µg/mL | 8 µg/mL (≈ 20.9 µM) | 0.5 µg/mL (≈ 1.31 µM)
2 | CC(C)N(CC(=O)N(C)C)NC(=O)[C@H](CC1CCCC1)CN(O)C=O [Example 3, 2-{N′-[(2R)-Cyclopentylmethyl-3-(formyl-hydroxy-amino)-propionyl]-N-isopropyl-hydrazino}-N,N-dimethyl-acetamide] | – | 0.5 to 1 µg/mL (≈ 1.4 to 2.81 µM) | 0.5 µg/mL (≈ 1.4 µM)
3 | COc1cc2c(cc1OC)CN(C(=O)CN(NC(=O)[C@H](CC1CCCC1)CN(O)C=O)C(C)C)CC2 [Example 4, N-{3-Cyclopentyl-(2R)-[N′-[2-(6,7-dimethoxy-3,4-dihydro-1H-isoquinolin-2-yl)-2-oxo-ethyl]-N′-isopropyl-hydrazinocarbonyl}-propyl)-N-hydroxy-formamide] | 1 to 2 µg/mL | 32 µg/mL (≈ 63.4 µM) | 0.5 µg/mL (≈ 0.991 µM)
4 | CC(C)N(CC(=O)N1CCN(Cc2ccc3c(c2)OCO3)CC1)NC(=O)[C@H](CC1CCCC1)CN(O)C=O [Example 5, N-(2-{N′-[(2R)-(4-Benzo[1,3]dioxol-5-ylmethyl-piperazin-1-yl)-2-oxo-ethyl]-N′-isopropyl-hydrazinocarbonyl}-3-cyclopentylpropyl)-N-hydroxy formamide] | 1 to 4 µg/mL | > 32 µg/mL | 1 µg/mL (≈ 1.88 µM)
5 | CC(C)N(CC(=O)Nc1cccnc1)NC(=O)[C@H](CC1CCCC1)CN(O)C=O [Example 6] | – | 32 µg/mL (≈ 78.9 µM) | 2 µg/mL (≈ 4.93 µM)
6 | CC(C)N(CC(=O)Nc1nccs1)NC(=O)[C@H](CC1CCCC1)CN(O)C=O [Example 7, 2-{N′-[(2R)-Cyclopentylmethyl-3-(formyl-hydroxy-amino)-propionyl]-N-isopropyl-hydrazino}-N-thiazol-2-yl-acetamide] | 16 to 32 µg/mL | 16 to 32 µg/mL (≈ 38.9 to 77.8 µM) | 2 µg/mL (≈ 4.86 µM)
7 | Cc1coc(NC(=O)CN(NC(=O)[C@H](CC2CCCC2)CN(O)C=O)C(C)C)n1 [Example 8, 2-{N′-[(2R)-Cyclopentylmethyl-3-(formyl-hydroxy-amino)-propionyl]-N-isopropyl-hydrazino}-N-(4-methyl-oxazol-2-yl)-acetamide] | 8 to 16 µg/mL | – | 2 µg/mL (≈ 4.88 µM)
8 | Cc1csc(NC(=O)CN(NC(=O)[C@H](CC2CCCC2)CN(O)C=O)C(C)C)n1 [Example 9, 2-{N′-[(2R)-Cyclopentylmethyl-3-(formyl-hydroxy-amino)-propionyl]-N-isopropyl-hydrazino}-N-(4-methyl-thiazol-2-yl)-acetamide] | 16 to 32 µg/mL | > 32 µg/mL | 2 µg/mL (≈ 4.7 µM)
9 | CC(C)N(CC(=O)Nc1nc2ccccc2s1)NC(=O)[C@H](CC1CCCC1)CN(O)C=O [Example 10, N-Benzothiazol-2-yl-2-{N′-[(2R)-cyclopentylmethyl-3-(formyl-hydroxy-amino)-propionyl]-N-isopropyl-hydrazino)acetamide] | 1 to 4 µg/mL | > 32 µg/mL | 2 µg/mL (≈ 4.33 µM)
